# Assay results from patent publication US20240074968A1, “ORAL PHARMACEUTICAL COMPOSITION AND METHOD FOR PRODUCING PARTICULATE FORMULATION COMPRISING COMPOSITION” (Sunsho Pharmaceutical Co., Ltd., priority 2016, published 2024).
# Test: Solubility in water at 20° C.
# Type: physicochemical
# Source text: The above hydrophobic liquid (B) is a hydrophobic liquid that can dissolve or disperse well the above active ingredient (A) and is not a surfactant. In this case, the “hydrophobicity” of this hydrophobic liquid (B) should disperse as liquid particles containing the active ingredient (A), without dissolving into the water-based composition containing the water-soluble polymer substance (C) and the excipient (D) described below. […] When this “hydrophobicity” is insufficient, it becomes difficult to remain dispersed in the composition while containing the above active ingredient (A), and all or much of the active ingredient (A) becomes contained in the composition as crystals, which makes it impossible to achieve the purpose of the present invention.
structure (smiles),measurement,value
CC(O)CO (stereo not shown) [propylene glycol],solubility in water at 20° C.,exceeding 10 mass %
